Measurements as given in patent publication US20210214375A1 (LUNDBECK LA JOLLA RESEARCH CENTER, INC., priority 2017, published 2021).
Where two headings read alike, the source gives them in different places.

Columns and labels:
MAGL [1] = target: T1, MAGL (Homo sapiens, UniProt Q99685); test: In vitro competitive activity-based protein profiling (gel-based, FP-Rh or HT-01 probe); format: biochemical
T1 construct: Proteomes (human prefrontal cortex or cell membrane fractions); from tissue
T1 sequence (Q99685 1-303): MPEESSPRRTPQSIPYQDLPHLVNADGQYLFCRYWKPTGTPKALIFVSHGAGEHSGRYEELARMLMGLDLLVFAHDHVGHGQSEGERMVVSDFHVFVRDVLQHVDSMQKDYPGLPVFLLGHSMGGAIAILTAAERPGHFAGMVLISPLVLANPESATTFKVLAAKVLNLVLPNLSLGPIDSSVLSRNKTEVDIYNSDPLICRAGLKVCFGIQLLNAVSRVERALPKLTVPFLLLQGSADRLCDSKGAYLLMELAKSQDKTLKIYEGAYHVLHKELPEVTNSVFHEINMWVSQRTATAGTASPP
Protocol: (§1) Compounds are tested to assess their MAGL and serine hydrolase activity using the following in vitro and in vivo assays.
(§2) Proteomes (human prefrontal cortex or cell membrane fractions) (50 μL, 1.0 mg/mL total protein concentration) were preincubated with varying concentrations of inhibitors at 37° C. After 30 min, FP—Rh or HT-01 (1.0 μL, 50 μM in DMSO) was added and the mixture was incubated for another 30 min at room temperature. Reactions were quenched with SDS loading buffer (15 μL-4×) and run on SDS-PAGE.

MAGL [2] = target: T2, MAGL (Mus musculus, UniProt O35678); test: Mouse brain proteomes from inhibitor treated mice (oral gavage, brain proteomes analyzed 4 h after administration); format: in vivo, mouse (C57Bl/6J); settings: brain proteome 4 h after administration, read-out: % Inh 5 mg/kg MGLL (Mouse)
T2 construct: from tissue; host or cells: brain of wild-type C57Bl/6J mice
T2 sequence (O35678 1-303): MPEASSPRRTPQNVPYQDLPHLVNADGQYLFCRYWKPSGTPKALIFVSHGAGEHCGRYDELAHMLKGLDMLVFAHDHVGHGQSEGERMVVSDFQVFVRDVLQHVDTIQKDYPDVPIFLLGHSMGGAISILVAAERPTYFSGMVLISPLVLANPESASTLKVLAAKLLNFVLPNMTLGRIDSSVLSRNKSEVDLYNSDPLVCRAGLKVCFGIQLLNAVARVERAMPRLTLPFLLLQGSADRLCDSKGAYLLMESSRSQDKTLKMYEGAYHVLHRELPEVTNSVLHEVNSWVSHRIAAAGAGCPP
Protocol: as §1
Preparation of Mouse Brain Proteomes from Inhibitor Treated Mice.
Inhibitors were administered to wild-type C57Bl/6J by oral gavage in a vehicle of polyethylene glycol. Each animal was sacrificed 4 h following administration and brain proteomes were prepared and analyzed according to previously established methods (See Niphakis, M. J., et al. (2011) ACS Chem. Neurosci. and Long, J. Z., et al. Nat. Chem. Biol. 5:37-44).

MGLL = target: T3, MGLL (Mus musculus, UniProt O35678); test: In vitro competitive activity-based protein profiling, mouse brain proteome; format: biochemical
T3 construct: Brain; from tissue; host or cells: mouse brain proteome
T3 sequence (O35678 1-303): T2 sequence (O35678 1-303)
Protocol: [Worded in the source for another species; this species is reported under the same test.] as §2

ABHD6 = target: T4, ABHD6 (Mus musculus, UniProt Q8R2Y0); test: In vitro competitive activity-based protein profiling, mouse brain proteome, ABHD6; format: biochemical; settings: for % Inh ABHD6 Brain (Mouse, μM): mouse brain proteome; for IC50: mouse
T4 construct: Brain; from tissue; host or cells: mouse brain proteome
T4 sequence (Q8R2Y0 1-336): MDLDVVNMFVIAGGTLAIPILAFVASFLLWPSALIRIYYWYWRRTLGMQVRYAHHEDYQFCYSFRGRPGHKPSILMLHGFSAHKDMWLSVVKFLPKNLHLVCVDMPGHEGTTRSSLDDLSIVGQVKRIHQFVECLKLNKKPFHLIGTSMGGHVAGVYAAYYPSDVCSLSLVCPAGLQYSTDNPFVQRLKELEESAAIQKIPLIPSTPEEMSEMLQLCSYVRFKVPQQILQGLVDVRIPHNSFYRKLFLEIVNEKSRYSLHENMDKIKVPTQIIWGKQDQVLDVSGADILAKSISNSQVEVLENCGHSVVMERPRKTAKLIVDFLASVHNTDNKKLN
Protocol: [Worded in the source for another target; this target is reported under the same test.] as §2

[3] = PC3 proteome, read-out: IC50 MGLL PC3 (Human)
[4] = PFC (prefrontal cortex) proteome
[5] = PFC (prefrontal cortex) proteome, read-out: IC50 MGLL PFC (Human)

SMILES | IC50 (MAGL [1]; [3]) [nM] | inhibition at 5 mg/kg (MAGL [2]) [%] | IC50 (MGLL) [nM] | IC50 (ABHD6) [nM] | further results
CC(C)(C#Cc1c(Cl)cccc1CN1CCCC12CCN(C(=O)OC(C(F)(F)F)C(F)(F)F)CC2)C(=O)O [Example 1, 4-(2-Chloro-6-((8-(((1,1,1,3,3,3-hexafluoropropan-2-yl)oxy)carbonyl)-1,8-diazaspiro[4.5]decan-1-yl)methyl)phenyl)-2,2-dimethylbut-3-ynoic acid] | < 100 | 25 to 75 | – | – | % Inh MGLL PFC (Human, μM) (MAGL [1]; [4]): ### (### is ≥ 75%)
O=C(OC(C(F)(F)F)C(F)(F)F)N1CCC2(CCCN2Cc2cc(F)cc(C3(C(=O)O)CCCC3)c2)CC1 [Example 4, 1-(3-Fluoro-5-((8-(((1,1,1,3,3,3-hexafluoropropan-2-yl)oxy)carbonyl)-1,8-diazaspiro[4.5]decan-1-yl)methyl)phenyl)cyclopentane-1-carboxylic acid] | < 100 | ≥ 75 | – | – | % Inh MGLL PFC (Human, μM) (MAGL [1]; [4]): ### (### is ≥ 75%)
CC(C)(C#Cc1cc(C(F)(F)F)ccc1CN1CCCC12CCN(C(=O)OC(C(F)(F)F)C(F)(F)F)CC2)C(=O)O [Example 5, 4-(2-((8-(((1,1,1,3,3,3-Hexafluoropropan-2-yl)oxy)carbonyl)-1,8-diazaspiro[4.5]decan-1-yl)methyl)-5-(trifluoromethyl)phenyl)-2,2-dimethylbut-3-ynoic acid] | < 100 | ≥ 75 | – | – | –
O=C(O)CN1CC2CC1CN2c1cc(C(F)(F)F)ccc1CN1CCCC12CCN(C(=O)OC(C(F)(F)F)C(F)(F)F)CC2 (centres unmarked) [Example 6, 2-(5-(2-((8-(((1,1,1,3,3,3-hexafluoropropan-2-yl)oxy)carbonyl)-1,8-diazaspiro[4.5]decan-1-yl)methyl)-5-(trifluoromethyl)phenyl)-2,5-diazabicyclo[2.2.1]heptan-2-yl)acetic acid] | < 100 | – | – | – | % Inh MGLL PFC (Human, μM) (MAGL [1]; [4]): ### (### is ≥ 75%); IC50 (MAGL [1]; [5]): < 100 nM; % Inh MGLL Brain (Mouse, μM) (MGLL): ### (### is ≥ 75%); % Inh ABHD6 Brain (Mouse, μM) (ABHD6): # (# is ≤ 25%)
O=C(OC(C(F)(F)F)C(F)(F)F)N1CCC2(CCCN2Cc2ccc(C(F)(F)F)cc2C2(C(=O)O)CCCC2)CC1 [Example 7, 1-(2-((8-(((1,1,1,3,3,3-hexafluoropropan-2-yl)oxy)carbonyl)-1,8-diazaspiro[4.5]decan-1-yl)methyl)-5-(trifluoromethyl)phenyl)cyclopentane-1-carboxylic acid] | < 100 | ≥ 75 | – | – | –
CN(Cc1cccc(Cl)c1C1(C(=O)O)CCCC1)C1(C)CCN(C(=O)OC(C(F)(F)F)C(F)(F)F)CC1 [Example 9, 1-(2-Chloro-6-(((1-(((1,1,1,3,3,3-hexafluoropropan-2-yl)oxy)carbonyl)-4-methylpiperidin-4-yl)(methyl)amino)methyl)phenyl)cyclopentane-1-carboxylic acid] | < 100 | ≤ 25 | – | – | % Inh MGLL PFC (Human, μM) (MAGL [1]; [4]): ### (### is ≥ 75%)
O=C(O)C1CCN(Cc2cc(C(F)(F)F)ccc2C(=O)N2CCCC23CCN(C(=O)OC(C(F)(F)F)C(F)(F)F)CC3)CC1 [Example 10, 1-(2-(8-(((1,1,1,3,3,3-Hexafluoropropan-2-yl)oxy)carbonyl)-1,8-diazaspiro[4.5]decane-1-carbonyl)-5-(trifluoromethyl)benzyl)piperidine-4-carboxylic acid] | – | ≥ 75 | – | – | % Inh MGLL PFC (Human, μM) (MAGL [1]; [4]): ### (### is ≥ 75%)
CN(Cc1cc(N2CCCC2)cc(C(F)(F)F)c1)C1(C)CCN(C(=O)OC(C(F)(F)F)C(F)(F)F)CC1 [Example 76, 1,1,1,3,3,3-Hexafluoropropan-2-yl 4-methyl-4-(methyl(3-(pyrrolidin-1-yl)-5-(trifluoromethyl)benzyl)amino) piperidine-1-carboxylate] | – | – | 100 to 1000 | > 1000 | IC50 (MAGL [1]; [5]): < 100 nM
O=C(O)[C@@H]1CCCN1C1CCN(c2cc(C(F)(F)F)ccc2CN2CCCC23CCN(C(=O)OC(C(F)(F)F)C(F)(F)F)CC3)CC1 [Example 164, (1-(2-((8-(((1,1,1,3,3,3-Hexafluoropropan-2-yl)oxy)carbonyl)-1,8-diazaspiro[4.5]decan-1-yl)methyl)-5-(trifluoromethyl)phenyl)piperidin-4-yl)-L-proline] | – | – | – | – | % Inh MGLL PC3 (Human, μM) (MAGL [1]; PC3 proteome): ### (### is ≥ 75%); % Inh MGLL Brain (Mouse, μM) (MGLL): ### (### is ≥ 75%); % Inh ABHD6 Brain (Mouse, μM) (ABHD6): # (# is ≤ 25%)

More lines, main results first:

IC50 (MAGL [1]; [3]) [nM] | inhibition at 5 mg/kg (MAGL [2]) [%] | IC50 (MGLL) [nM] | IC50 (ABHD6) [nM] | SMILES | further results
– | ≤ 25 | – | – | O=C(O)CN1CC2CC1CN2c1cc(CN2CC3(CCN(C(=O)OC(C(F)(F)F)C(F)(F)F)CC3)C2)cc(C(F)(F)F)c1 (centres unmarked) [Example 129, 2-(5-{3-[(7-{[(1,1,1,3,3,3-Hexafluoropropan-2-yl)oxy]carbonyl}-2,7-diazaspiro[3.5]nonan-2-yl)methyl]-5-(trifluoromethyl)phenyl}-2,5-diazabicyclo[2.2.1]heptan-2-yl)acetic acid] | –
< 100 | – | 100 to 1000 | > 1000 | O=C(O)C1CCN(c2cc(Cl)ccc2CN2CCC3(CC2)CCN(C(=O)OC(C(F)(F)F)C(F)(F)F)C3)CC1 [Example 194, 1-(5-Chloro-2-((2-(((1,1,1,3,3,3-hexafluoropropan-2-yl)oxy)carbonyl)-2,8-diazaspiro[4.5]decan-8-yl)methyl)phenyl) piperidine-4-carboxylic acid] | IC50 (MAGL [1]; [5]): < 100 nM
< 100 | – | 100 to 1000 | > 1000 | O=C(O)C1CCN(c2cc(C(F)(F)F)ccc2CN2CCC3(CC2)CCN(C(=O)OC(C(F)(F)F)C(F)(F)F)C3)CC1 [Example 195, 1-(2-((2-(((1,1,1,3,3,3-Hexafluoropropan-2-yl)oxy)carbonyl)-2,8-diazaspiro[4.5]decan-8-yl)methyl)-5-(trifluoromethyl)phenyl)piperidine-4-carboxylic acid] | IC50 (MAGL [1]; [5]): 100 to 1000 nM
– | – | < 100 | 100 to 1000 | CS(=O)(=O)N1CCCC12CCN(c1cc(C(F)(F)F)ccc1CN1CCN(C(=O)OC(C(F)(F)F)C(F)(F)F)CC1)CC2 [Example 209, 1,1,1,3,3,3-Hexafluoropropan-2-yl-((2-(1-(methylsulfonyl)-1,8-diazaspiro[4.5]decan-8-yl)-4-(trifluoromethyl)benzyl)piperazine-1-carboxylate] | –
– | – | 100 to 1000 | > 1000 | CN1CCCC12CCN(c1cc(Cl)ccc1CN1CCN(C(=O)OC(C(F)(F)F)C(F)(F)F)CC1)CC2 [Example 214, 1,1,1,3,3,3-Hexafluoropropan-2-yl 4-(4-chloro-2-(1-methyl-1,8-diazaspiro[4.5]decan-8-yl)benzyl)piperazine-1--carboxylate] | –
– | – | 100 to 1000 | > 1000 | CN1CCCC12CCN(c1cc(C(F)(F)F)ccc1CN1CCN(C(=O)OC(C(F)(F)F)C(F)(F)F)CC1)CC2 [Example 215, 1,1,1,3,3,3-Hexafluoropropan-2-yl 4-(2-(1-methyl-1,8-diazaspiro[4.5]decan-8-yl)-4-(trifluoromethyl)benzyl)piperazine-1-carboxylate] | –
– | – | < 100 | 100 to 1000 | CS(=O)(=O)N1CCc2cccc(CN3CCC4(CC3)CCN(C(=O)OC(C(F)(F)F)C(F)(F)F)C4)c2C1 [Example 217, 1,1,1,3,3,3-Hexafluoropropan-2-yl 8-((2-(methylsulfonyl)-1,2,3,4-tetrahydroisoquinolin-8-yl)methyl)-2,8-diazaspiro[4.5]decane-2-carboxylate] | –
– | – | 100 to 1000 | > 1000 | CC(=O)N1CC2(CCN(c3ccccc3CN3CCC34CCN(C(=O)OC(C(F)(F)F)C(F)(F)F)CC4)C2)C1 [Example 228, 1,1,1,3,3,3-Hexafluoropropan-2-yl 1-(2-(2-acetyl-2,6-diazaspiro[3.4]octan-6-yl)benzyl)-1,7-diazaspiro[3.5]nonane-7-carboxylate] | –
– | – | > 1000 | 100 to 1000 | CS(=O)(=O)N1CCC2(CCN(c3cc(Cl)cc(CN4CCCC45CN(C(=O)OC(C(F)(F)F)C(F)(F)F)C5)c3)CC2)C1 [Example 232] | –
